According to ChEMBL document CHEMBL1152731, “Design, synthesis, and anti-HIV activity of 4'-modified carbocyclic nucleoside phosphonate reverse transcriptase inhibitors” (Bioorg Med Chem, 2009):

Assays:
[1] = Cytotoxicity against human MT2 cells after 5 days; type: cell-based
[2] = tested on: Human immunodeficiency virus 1; assay: Antiviral activity against HIV1 3a with reverse transcriptase M184V mutation in human MT2 cells assessed as inhibition of viral-induced cytopathic effect by XTT assay relative to wild type; type: functional
[3] = tested on: Human immunodeficiency virus 1; assay: Antiviral activity against HIV1 3a with reverse transcriptase K65R mutation in human MT2 cells assessed as inhibition of viral-induced cytopathic effect by XTT assay relative to wild type; type: functional
[4] = tested on: Human immunodeficiency virus 1; assay: Antiviral activity against HIV1 3a infected human MT2 cells assessed as inhibition of viral-induced cytopathic effect after 3 days by XTT assay; type: functional, organism-based; conditions: Human immunodeficiency virus 1, 3a, MT2, 72 h
[5] = target: Human immunodeficiency virus type 1 reverse transcriptase (Human immunodeficiency virus 1, UniProt Q72547); assay: Inhibition on HIV1 reverse transcriptase p66/p51

Row | SMILES | CC50 at 120 h [1] | fold change (FC) [2] | fold change (FC) [3] | EC50 [4] | IC50 [5]
1 | Nc1ncnc2c1ncn2[C@@H]1O[C@H](OCP(=O)(O)O)C=C1F [GS-9148] | > 1000 µM | 0.8 | 1.1 | – | –
2 | C#C[C@@]1(OCP(=O)(O)O)C=C[C@H](n2cnc3c(N)ncnc32)C1 | 1450 µM | >30 | 2.2 | 16 µM | 0.13 µM
3 | C[C@H](Cn1cnc2c(N)ncnc21)OCP(=O)(O)O [TENOFOVIR ANHYDROUS] | > 1000 µM | 0.7 | 4.3 | – | –
4 | Nc1ncnc2c1ncn2[C@H]1C=C[C@@H](OCP(=O)(O)O)O1 | > 1000 µM | 2.9 | 2.9 | – | –
5 | Nc1nc(NC2CC2)c2ncn([C@H]3C=C[C@@H](CO)C3)c2n1 [ABACAVIR] | – | 7.1 | 3.8 | 0.32 µM | 0.13 µM
6 | Nc1ncnc2c1ncn2[C@H]1C=C[C@@H](OCP(=O)(O)O)C1 | – | – | – | 52 µM | –
7 | C=C[C@@]1(OCP(=O)(O)OP(=O)(O)OP(=O)(O)O)C=C[C@H](n2cnc3c(N)ncnc32)C1 | – | – | – | – | 0.62 µM
8 | Cc1cn([C@H]2C[C@H](N=[N+]=[N-])[C@@H](CO)O2)c(=O)[nH]c1=O [ZIDOVUDINE] | > 200 µM | 0.7 | 1.2 | – | –
9 | C[C@@]1(OCP(=O)(O)O)C=C[C@H](n2cnc3c(N)ncnc32)C1 | – | – | – | 244 µM | –
